Measurements taken from patent US20150148234A1, “HERBICIDE-RESISTANT SUNFLOWER PLANTS WITH MULTIPLE HERBICIDE RESISTANT ALLELES OF AHASL1 AND METHODS OF USE” (NIDERA S.A., priority 2013, published 2015).

Key:
[1] = tested on: AHAS enzyme of A122T homozygous (GM40); experiment: AHAS enzyme activity assay, Set 2; format: biochemical, sunflower; settings: Set 2 (FIG. 14)
Experimental: (§1) Twelve greenhouse grown sunflower plants from each of the lines depicted in Table 21 were bulked and subjected to an AHAS enzyme activity assay via the method of Singh et al. (1988) Anal. Biochem. 171:173-179. Each activity assay was repeated twice. Due to the large number of samples, the experiment was split into two sets (Table 21).
(§2) Young, actively growing leaves, from four week old plantlets, were ground in a mortar and pestle with liquid N2 and extracted with a buffer composed of 100 mM Pyruvate, 200 mM KH2PO4, 20 mM MgCl2, 2 mM thiamine pyrophosphate and […]. Plant extracts were then spun through a 10 mL Zeba™ TM desalt spin column (Pierce #89893) as per the manufacturer's recommendation. The inhibition assay was performed as described by Singh et al. (1988) Anal. Biochem. 171:173-179. Assays were conducted in a 96-well format. Fifty μl of inhibitor was added to each well containing 50 μl of soluble protein extract to give final concentrations of 0.78, 1.56, 3.125, 6.25, 12.5, 25, 50 and 100 μM imazamox or 0.78, 1.56, 3.125, 6.25, 12.5, 25, 50 and 100 μM imazapyr. Zero herbicide controls were also included for each line. Reactions were processed as outlined by Singh et al. (1988) Anal. Biochem. 171:173-179. Absorbance was measured at 530 nm. AHAS activity, expressed as the mean of the absorbance values for each treatment, was presented as a percentage of the mean of the zero-herbicide controls.

[2] = tested on: AHAS enzyme of A205V homozygous (B7imi, IMISUN1); experiment: AHAS enzyme activity assay, Set 2; format: biochemical, sunflower; settings: Set 2 (FIG. 14)
Experimental: as §1, §2

[3] = tested on: AHAS enzyme of A122T heterozygous hybrid (cmsBTK47 × R731); experiment: AHAS enzyme activity assay, Set 2; format: biochemical, sunflower; settings: Set 2 (FIG. 14)
Experimental: as §1, §2

[4] = tested on: sunflower line OB712 (high oleic); experiment: tolerance to imidazolinones, greenhouse (Example 8)
[5] = tested on: control line HA425 (A205V); experiment: imazapyr challenge of segregating population (Example 1); format: in vivo, sunflower; settings: 320 g a.i. ha-1
Experimental: To determine the phenotypic interactions of the resistance gene A122T and the Imr1 gene (A205V) already described in IMI-R sunflowers (HA425), F1, F2 and BC1F1 populations from the cross GM40 (A122T)/HA425 (A205V) were evaluated at two herbicide applications rates (80 and 320 g. a. i. Ha^−1 of imazapyr). […] When F2 and BC1F1 populations were scored at the higher herbicide rate (320 g. a. i. Ha-1), which discriminates both parents, segregation for susceptibility was observed. Only two phenotypic classes could be detected, a resistant class with plants without any injury or slight symptoms and a susceptible phenotype that was killed like the control line HA425.

[6] = tested on: sunflower hybrid H1 (L1 × L2), A205V; experiment: imazapyr whole plant greenhouse test (Example 2); format: in vivo
Experimental: (§3) Seeds were sown in Petri dishes and, after germination, plantlets were transplanted to pots of 10 cm of diameter in a potting media consisting of equal parts of vermiculite, soil and sand. Plants were grown in a greenhouse under natural light conditions supplemented with 400 W sodium halide lamps to provide a 16 hr daylength. Day/night temperatures were 25 and 20 ° C., respectively. At the V2-V4 stage (Schneiter & Miller (1981) Crop Sci. 21:901-903) 10 plants of each genotype were randomly assigned to each treatment consisting of eight imazapyr doses (0, 40, 80, 160, 240, 320, 400 and 480 g ai/ha, corresponding to untreated, 0.5×, 1×, 2×, 3×, 4×, 5× and 6×, respectively), and a zero-time biomass determination. Experiment was arranged as a randomized block design with a full factorial (sunflower line×treatment) arrangement of treatments and 10 replications.
(§4) On the day of herbicide application ten plants of each genotype were cut at the cotyledonal node and dried at 60° C. for 48 hrs for zero-time dried weight determination.
(§5) The remaining plants were maintained for 14 days after imazapyr treatment (DAT) and their height, Phytotoxicity Index (PI) and above ground dry biomass were determined Height was determined as the distance between the cotyledonal node and the apex of each plant. Above ground biomass data from each line were converted to biomass accumulation after application by subtracting the appropriate average zero- time biomass from each sample. Dry biomass data were converted to percentages of the untreated control plants within each line to allow direct comparisons between groups.

[7] = tested on: sunflower line L3 (cmsGM40), A122T; experiment: imazapyr whole plant greenhouse test (Example 2); format: in vivo
Experimental: as §3, §4, §5

[8] = tested on: sunflower line BTI-OL-M1709; experiment: tolerance to imidazolinones, greenhouse (Example 8); settings: 160 gr/ha at V4, fourteen days after treatment
[9] = tested on: sunflower line BTI-OL-M1511; experiment: as above; settings: 160 gr/ha at V4, fourteen days after treatment

Compound: COCc1cnc(C2=NC(C)(C(C)C)C(=O)N2)c(C(=O)O)c1 (centres unmarked) [imazamox]
- AHAS activity, % of untreated control ([1]; 50 μM): 63%
- AHAS activity, % of untreated control ([1]; 100 μM): 60%
- AHAS activity, % of untreated control ([2]; 50 μM): 30%
- AHAS activity, % of untreated control ([2]; 100 μM): 26%
- AHAS activity, % of untreated control ([3]; 50 μM): 30%
- AHAS activity, % of untreated control ([3]; 100 μM): 30%

Compound: CC(C)C1(C)N=C(c2ncccc2C(=O)O)NC1=O (centres unmarked) [imazapyr]
- outcome of the herbicide treatment ([4]; 160 gr/ha at V4): killed
- Mean Phytotoxicity Index (0-9) ([4]; 160 gr/ha at V4, fourteen days after treatment): 9
- outcome of herbicide application [5]: killed
- Phytotoxicity Index (0-9) 14 days after treatment ([6]; dose 0.5 (0.5x, 40 g ai/ha)): 0
- biomass accumulation 14 days after treatment, % of untreated ([6]; dose 0.5 (0.5x, 40 g ai/ha)): 95.0%
- plant height 14 days after treatment, % of untreated ([6]; dose 0.5 (0.5x, 40 g ai/ha)): 99.5%
- Phytotoxicity Index (0-9) 14 days after treatment ([6]; dose 1 (1x, 80 g ai/ha)): 0
- biomass accumulation 14 days after treatment, % of untreated ([6]; dose 1 (1x, 80 g ai/ha)): 89.6%
- plant height 14 days after treatment, % of untreated ([6]; dose 1 (1x, 80 g ai/ha)): 99.5%
- Phytotoxicity Index (0-9) 14 days after treatment ([6]; dose 2 (2x, 160 g ai/ha)): 1.8
- biomass accumulation 14 days after treatment, % of untreated ([6]; dose 2 (2x, 160 g ai/ha)): 75.5%
- plant height 14 days after treatment, % of untreated ([6]; dose 2 (2x, 160 g ai/ha)): 78.6%
- Phytotoxicity Index (0-9) 14 days after treatment ([6]; dose 3 (3x, 240 g ai/ha)): 6.4
- biomass accumulation 14 days after treatment, % of untreated ([6]; dose 3 (3x, 240 g ai/ha)): 60.4%
- plant height 14 days after treatment, % of untreated ([6]; dose 3 (3x, 240 g ai/ha)): 48.4%
- Phytotoxicity Index (0-9) 14 days after treatment ([6]; dose 4 (4x, 320 g ai/ha)): 8.0
- biomass accumulation 14 days after treatment, % of untreated ([6]; dose 4 (4x, 320 g ai/ha)): 46.5%
- plant height 14 days after treatment, % of untreated ([6]; dose 4 (4x, 320 g ai/ha)): 28.9%
- Phytotoxicity Index (0-9) 14 days after treatment ([6]; dose 5 (5x, 400 g ai/ha)): 8.9
- biomass accumulation 14 days after treatment, % of untreated ([6]; dose 5 (5x, 400 g ai/ha)): 38.9%
- plant height 14 days after treatment, % of untreated ([6]; dose 5 (5x, 400 g ai/ha)): 25.3%
- Phytotoxicity Index (0-9) 14 days after treatment ([6]; dose 6 (6x, 480 g ai/ha)): 9.0
- biomass accumulation 14 days after treatment, % of untreated ([6]; dose 6 (6x, 480 g ai/ha)): 33.9%
- plant height 14 days after treatment, % of untreated ([6]; dose 6 (6x, 480 g ai/ha)): 27.1%
- Phytotoxicity Index (0-9) 14 days after treatment ([7]; dose 0.5 (0.5x, 40 g ai/ha)): 0.4
- biomass accumulation 14 days after treatment, % of untreated ([7]; dose 0.5 (0.5x, 40 g ai/ha)): 96.6%
- plant height 14 days after treatment, % of untreated ([7]; dose 0.5 (0.5x, 40 g ai/ha)): 100.4%
- Phytotoxicity Index (0-9) 14 days after treatment ([7]; dose 1 (1x, 80 g ai/ha)): 0.4
- biomass accumulation 14 days after treatment, % of untreated ([7]; dose 1 (1x, 80 g ai/ha)): 93.9%
- plant height 14 days after treatment, % of untreated ([7]; dose 1 (1x, 80 g ai/ha)): 99.9%
- Phytotoxicity Index (0-9) 14 days after treatment ([7]; dose 2 (2x, 160 g ai/ha)): 0.4
- biomass accumulation 14 days after treatment, % of untreated ([7]; dose 2 (2x, 160 g ai/ha)): 81.6%
- plant height 14 days after treatment, % of untreated ([7]; dose 2 (2x, 160 g ai/ha)): 92.0%
- Phytotoxicity Index (0-9) 14 days after treatment ([7]; dose 3 (3x, 240 g ai/ha)): 0.5
- biomass accumulation 14 days after treatment, % of untreated ([7]; dose 3 (3x, 240 g ai/ha)): 75.8%
- plant height 14 days after treatment, % of untreated ([7]; dose 3 (3x, 240 g ai/ha)): 90.5%
- Phytotoxicity Index (0-9) 14 days after treatment ([7]; dose 4 (4x, 320 g ai/ha)): 1.0
- biomass accumulation 14 days after treatment, % of untreated ([7]; dose 4 (4x, 320 g ai/ha)): 75.0%
- plant height 14 days after treatment, % of untreated ([7]; dose 4 (4x, 320 g ai/ha)): 90.8%
- Phytotoxicity Index (0-9) 14 days after treatment ([7]; dose 5 (5x, 400 g ai/ha)): 2.0
- biomass accumulation 14 days after treatment, % of untreated ([7]; dose 5 (5x, 400 g ai/ha)): 60.1%
- plant height 14 days after treatment, % of untreated ([7]; dose 5 (5x, 400 g ai/ha)): 84.4%
- Phytotoxicity Index (0-9) 14 days after treatment ([7]; dose 6 (6x, 480 g ai/ha)): 2.5
- biomass accumulation 14 days after treatment, % of untreated ([7]; dose 6 (6x, 480 g ai/ha)): 59.6%
- plant height 14 days after treatment, % of untreated ([7]; dose 6 (6x, 480 g ai/ha)): 84.4%
- Mean Phytotoxicity Index (0-9) [8]: 0.2
- Mean Phytotoxicity Index (0-9) [9]: 0.5
